Source: patent US11932663B2 (CanWell Biotech Limited, priority 2020, dated 2024)

What follows are compounds tested on Human PBMC (assay: TLR7/8 agonists induce cytokine release in human PBMC (ELISA of culture supernatant)). Conditions: 24 h incubation, lowest concentration inducing cytokine at least 2x greater than negative control wells.
Format: cell-based
Experimental: Example 8. TLR7/8 Agonists Induce IFN-Gamma and TNF-Alpha Release in Human PBMC
The system is used to assess the cytokines release. Activity is based on the measurement of interferon-gamma (IFN-γ) and tumor necrosis factor-alpha (TNF-α) secreted into culture media.
Fresh human blood was diluted with the same volume of PBS, 15 mL Lymphoprep was added into a Sepmate tube, then 30 mL diluted blood was added on the top gently without disturbing the interface.
The Sepmate tube was centrifuged for 25 min at 1000×g at RT with brake off.
The buffy coat containing peripheral blood mononuclear cells (PBMCs) was collected from Sepmate tube and transferred into a new tube, and the cells were washed with 40 mL PBS twice and centrifuged at 350×g for 5 min.
PBMCs were resuspended in complete culture medium at a density of 2E6/ml.
The compounds are solubilized in dimethyl sulfoxide (DMSO) and diluted into indicated concentration with complete culture medium.
2*10^5 PBMCs (in 100 μL) were added to each well of 96-well flat bottom plate.
2× final concentration of 3-fold serial diluted compounds (in 100 μL) were added to indicated wells and final volume was 200 μL.
The plate was covered with sterile lids, mixed gently and then incubated for 24 h at 37° C./5% CO2 incubator.
Following incubation, the plates was centrifuged for 5 min. at 400×g. The cell-free culture Supernatant was removed into a non-sterile polypropylene plate. Samples are maintained at −80° C. until analysis. The samples were analyzed for TNF-α and IFN-γ by ELSA according to the direction.
TNF-α and IFN-α were analyzed by ELISA. IFN-α concentration was determined by ELISA using a Human IFN-α ELISA Kit from R&D Systems (Catalog #41100-2) and read on VICTOR Nivo™ from PerkinElmer. Results were expressed in pg/mL. TNF-α concentration was determined by ELISA using a Human TNF-alpha ELISA MAX™ Deluxe from BioLegend (Catalog #430205) and read on VICTOR Nivo™ from PerkinElmer. Results were expressed in pg/mL.
Specifically, the MEC of each compound (micromolar) was determined as the lowest concentration of the compound that induced a measured cytokine response at a level ([…]) that was at least 2× greater than that observed with the negative control wells.

Point of comparison: `CCCCc1nc2c(N)nc3cc(P(=O)(CC)CC)ccc3c2n1OCCCCN` [Example 2, (4-amino-1-(4-aminobutoxy)-2-butyl-1H-imidazo[4,5-c]quinolin-7-yl)diethylphosphine oxide], “MEC to induce cytokine IFN-alpha” value 0.137 µM. Against it:
- CCCCc1nc2c(N)nc3cc(P(C)(C)=O)ccc3c2n1OCCCCN [Example 1, (4-amino-1-(4-aminobutoxy)-2-butyl-1H-imidazo[4,5-c]quinolin-7-yl)dimethylphosphine oxide] — 3-fold lower, 0.046 µM
- CCCCCCCCCCCCCCCCCC(=O)NCCCCOn1c(CCCC)nc2c(N)nc3cc(P(C)(C)=O)ccc3c21 [Example 3, N-(4-((4-amino-2-butyl-7-(dimethylphosphoryl)-1H-imidazo[4,5-c]quinolin-1-yl)oxy)butyl)stearamide] — 9.1-fold lower, 0.015 µM
- CCCCCCCCCCCCCCCCCNc1c(NCCCCOn2c(CCCC)nc3c(N)nc4cc(P(C)(C)=O)ccc4c32)c(=O)c1=O [Example 4] — 13-fold higher, 1.73 µM
- CCCCCCCCCCCCCCCCCNc1c(NCCCCOn2c(CCCC)nc3c(N)nc4cc(P(=O)(CC)CC)ccc4c32)c(=O)c1=O [Example 7, 3-(4-(4-amino-2-butyl-7-(diethylphosphoryl)-1H-imidazo[4,5-c]quinolin-1-yloxy)butylamino)-4-(heptadecylamino)cyclobut-3-ene-1,2-dione] — 9.1-fold lower, 0.015 µM

Point of comparison: `CCCCCCCCCCCCCCCCCC(=O)NCCCCOn1c(CCCC)nc2c(N)nc3cc(P(C)(C)=O)ccc3c21` [Example 3, N-(4-((4-amino-2-butyl-7-(dimethylphosphoryl)-1H-imidazo[4,5-c]quinolin-1-yl)oxy)butyl)stearamide], “MEC to induce cytokine TNF-alpha” value 0.015 µM. Against it:
- CCCCc1nc2c(N)nc3cc(P(C)(C)=O)ccc3c2n1OCCCCN [Example 1, (4-amino-1-(4-aminobutoxy)-2-butyl-1H-imidazo[4,5-c]quinolin-7-yl)dimethylphosphine oxide] — 250-fold higher, 3.7 µM
- CCCCc1nc2c(N)nc3cc(P(=O)(CC)CC)ccc3c2n1OCCCCN [Example 2, (4-amino-1-(4-aminobutoxy)-2-butyl-1H-imidazo[4,5-c]quinolin-7-yl)diethylphosphine oxide] — 740-fold higher, 11.1 µM
- CCCCCCCCCCCCCCCCCNc1c(NCCCCOn2c(CCCC)nc3c(N)nc4cc(P(C)(C)=O)ccc4c32)c(=O)c1=O [Example 4] — 740-fold higher, 11.1 µM
- CCCCCCCCCCCCCCCCCNc1c(NCCCCOn2c(CCCC)nc3c(N)nc4cc(P(=O)(CC)CC)ccc4c32)c(=O)c1=O [Example 7, 3-(4-(4-amino-2-butyl-7-(diethylphosphoryl)-1H-imidazo[4,5-c]quinolin-1-yloxy)butylamino)-4-(heptadecylamino)cyclobut-3-ene-1,2-dione] — 250-fold higher, 3.7 µM

With `CCCCCCCCCCCCCCCCCc1cn(CCCCOn2c(CCCC)nc3c(N)nc4cc(P(C)(C)=O)ccc4c32)nn1` [Example 6, (4-amino-2-butyl-1-(4-(4-heptadecyl-1H-1,2,3-triazol-1-yl)butoxy)-1H-imidazo[4,5-c]quinolin-7-yl)dimethylphosphine oxide] the “MEC to induce cytokine IFN-alpha” value was over 33.3 µM.

`CCCCCCCCCCCCCCCCCc1cn(CCCCOn2c(CCCC)nc3c(N)nc4cc(P(C)(C)=O)ccc4c32)nn1` [Example 6, (4-amino-2-butyl-1-(4-(4-heptadecyl-1H-1,2,3-triazol-1-yl)butoxy)-1H-imidazo[4,5-c]quinolin-7-yl)dimethylphosphine oxide] was tested, and the “MEC to induce cytokine TNF-alpha” value was over 33.3 µM.
